Reference: article PMC7864192 (Cancers, 2021)
Several values for one entry are separate records, joined by “and”; a condition that tells them apart may be missing. Identical values can stand only once. Like-named read-outs stand apart in the source and are kept apart here.

Experiments:
[1] = test system: GCPA028 T1.II patient-derived AGCT cell line; experiment: Cell viability drug screen (Cell Titer Glo 2.0, 72 h), mono- and combination therapy, GCPA028; conditions: for IC50: Homo sapiens, read-out: IC50 in monotherapy
Experimental: (§1) Cell lines were seeded at a density of 500 cells/well in 40 uL in 384-well plates (Corning, NY, USA) with the Multidrop™ cell dispenser (Thermo Fischer Scientific, Waltham, MA, USA) and sealed with Breathe-Easy® membrane (Sigma-Aldrich, St. Louis, MO, USA) to prevent evaporation. The SVOG-3e line was seeded at 1000 cells/well due to contact-dependent growth requirements. For each cell line, three biological repeats and two technical repeats each were performed in order to ensure the validity of the drug screens. […] Subsequently, 11 drugs and 12 drug combinations were dispensed and all wells (excluding blanks and non-DMSO control wells) were normalized to 1% DMSO using the HP Tecan D300e Digital Dispenser (Hewlett-Packard, Palo Alto, CA, USA). All drugs were applied in linear concentration ranges (Table 2), including 16 data points to enable combination drug testing at constant ratios (Table 3). Next, the plates were covered with the Breathe-Easy membrane and incubated. After 72 h, the Multidrop dispensed 15 uL per well of Cell Titer Glo 2.0 (Thermo Fischer Scientific, Waltham, MA, USA) and plates were incubated in the dark for 10 min. After incubation, luminescence excitation was assessed in the Spectramax reader (Molecular Devices, San Jose, CA, USA) (top read, luminescence excitation at 500 nm) and raw data were processed in Microsoft Excel to subtract background luminescence. […] Screens with a Z-factor value of >0.5 were used for further analysis.
(§2) Overall cell survival (in %) was plotted against the drug concentration range of each drug (in log10[μM]) using GraphPad Prism 8.3.1. Values that exceeded 100% survival (within +20% biological deviation) were normalized to 100% survival. Similarly, values below 0% cell survival (within −20% biological deviation) were normalized to 0% survival. Values exceeding this deviation were excluded. Dose–response curves were obtained using the model “log(inhibitor) vs. variable slope (normalized response)” to fit the dose–response curves and R^2 values were used to indicate how well the model fit the data (Supplementary Materials Figures S4 and S5). […] The maximum plasma concentration (Cmax) and the plasma concentration at steady state (Css) were used as toxicity thresholds. The Cmax was utilized for drugs in which short, high-dosage time courses are required, while the Css was used for maintenance therapy regimes such as anti-hormonal treatment. […] The IC50 values were calculated based on the Chou–Talalay method using Compusyn software [55]. For anti-hormonal treatment, mostly provided as maintenance therapy, we used IC10 values in addition to the IC50.
(§3) In addition to the 11 monotherapies, 12 drug combinations were tested (Table 3) simultaneously with the individual drug treatments in the same 384-well plate. […] Synergy was evaluated using the mass action law, a systematic analysis assessing dose–response dynamics in a cost-effective manner [56, 57]. The combination index (CI) was used to indicate antagonistic (CI > 1) additive (CI = 1) and synergistic (CI < 1) effects [55].

[2] = test system: GCPA096 T1.V patient-derived AGCT cell line; experiment: Cell viability drug screen (Cell Titer Glo 2.0, 72 h), mono- and combination therapy, GCPA096T1.V; conditions: for DRI (Fa=0,5): GCPA096T1V; for IC50: Homo sapiens, 72 h, read-out: IC50 in monotherapy
Experimental: as §1, §2, §3

[3] = test system: GCPA108 T3.IV patient-derived AGCT cell line; experiment: Cell viability drug screen (Cell Titer Glo 2.0, 72 h), mono- and combination therapy, GCPA108T3.IV; conditions: for DRI (Fa=0,5): GCPA108T3IV; for IC50: Homo sapiens, read-out: IC50 in monotherapy
Experimental: (§4) Cell lines were seeded at a density of 500 cells/well in 40 uL in 384-well plates (Corning, NY, USA) with the Multidrop™ cell dispenser (Thermo Fischer Scientific, Waltham, MA, USA) and sealed with Breathe-Easy® membrane (Sigma-Aldrich, St. Louis, MO, USA) to prevent evaporation. The SVOG-3e line was seeded at 1000 cells/well due to contact-dependent growth requirements. For each cell line, three biological repeats and two technical repeats each were performed in order to ensure the validity of the drug screens. […] Subsequently, 11 drugs and 12 drug combinations were dispensed and all wells (excluding blanks and non-DMSO control wells) were normalized to 1% DMSO using the HP Tecan D300e Digital Dispenser (Hewlett-Packard, Palo Alto, CA, USA). All drugs were applied in linear concentration ranges (Table 2), including 16 data points to enable combination drug testing at constant ratios (Table 3). Next, the plates were covered with the Breathe-Easy membrane and incubated. After 72 h, the Multidrop dispensed 15 uL per well of Cell Titer Glo 2.0 (Thermo Fischer Scientific, Waltham, MA, USA) and plates were incubated in the dark for 10 min. After incubation, luminescence excitation was assessed in the Spectramax reader (Molecular Devices, San Jose, CA, USA) (top read, luminescence excitation at 500 nm) and raw data were processed in Microsoft Excel to subtract background luminescence. The Z-factor, a mathematical method used to quantify the quality of a drug screen based on the calculation of the separation band between the values of the positive and negative controls, was utilized to assess the quality of drug screens [54]. Screens with a Z-factor value of >0.5 were used for further analysis.
as §2, §3

[4] = test system: GCPA096 T1.XVI patient-derived AGCT cell line; experiment: Cell viability drug screen (Cell Titer Glo 2.0, 72 h), mono- and combination therapy, GCPA096T1.XVI; conditions: for DRI (Fa=0,5): GCPA096T1XVI; for IC50: Homo sapiens, read-out: IC50 in monotherapy
[5] = test system: GCPA113 T1.I patient-derived AGCT cell line; experiment: Cell viability drug screen (Cell Titer Glo 2.0, 72 h), mono- and combination therapy, GCPA113T1.I; conditions: for DRI (Fa=0,5): GCPA113T1I; for IC50: Homo sapiens
Experimental: (§5) Cell lines were seeded at a density of 500 cells/well in 40 uL in 384-well plates (Corning, NY, USA) with the Multidrop™ cell dispenser (Thermo Fischer Scientific, Waltham, MA, USA) and sealed with Breathe-Easy® membrane (Sigma-Aldrich, St. Louis, MO, USA) to prevent evaporation. […] For each cell line, three biological repeats and two technical repeats each were performed in order to ensure the validity of the drug screens. […] Subsequently, 11 drugs and 12 drug combinations were dispensed and all wells (excluding blanks and non-DMSO control wells) were normalized to 1% DMSO using the HP Tecan D300e Digital Dispenser (Hewlett-Packard, Palo Alto, CA, USA). […] Next, the plates were covered with the Breathe-Easy membrane and incubated. After 72 h, the Multidrop dispensed 15 uL per well of Cell Titer Glo 2.0 (Thermo Fischer Scientific, Waltham, MA, USA) and plates were incubated in the dark for 10 min. After incubation, luminescence excitation was assessed in the Spectramax reader (Molecular Devices, San Jose, CA, USA) (top read, luminescence excitation at 500 nm) and raw data were processed in Microsoft Excel to subtract background luminescence. The Z-factor, a mathematical method used to quantify the quality of a drug screen based on the calculation of the separation band between the values of the positive and negative controls, was utilized to assess the quality of drug screens [54]. Screens with a Z-factor value of >0.5 were used for further analysis.
(§6) Overall cell survival (in %) was plotted against the drug concentration range of each drug (in log10[μM]) using GraphPad Prism 8.3.1. Values that exceeded 100% survival (within +20% biological deviation) were normalized to 100% survival. Similarly, values below 0% cell survival (within −20% biological deviation) were normalized to 0% survival. Values exceeding this deviation were excluded. Dose–response curves were obtained using the model “log(inhibitor) vs. variable slope (normalized response)” to fit the dose–response curves and R^2 values were used to indicate how well the model fit the data (Supplementary Materials Figures S4 and S5). […] The IC50 values were calculated based on the Chou–Talalay method using Compusyn software [55]. For anti-hormonal treatment, mostly provided as maintenance therapy, we used IC10 values in addition to the IC50.
as §3

[6] = test system: AGCT cell lines; experiment: Cell viability drug screen (72 h), summary over AGCT cell lines (12 patient-derived, with or without KGN); assay type: cell-based, human
Experimental: as §4, §2, §3

[7] = test system: GCPA096 T1.I patient-derived AGCT cell line; experiment: Cell viability drug screen (Cell Titer Glo 2.0, 72 h), mono- and combination therapy, GCPA096T1.I; conditions: for DRI (Fa=0,5): GCPA096T1I; for IC50: Homo sapiens, read-out: IC50 in monotherapy
Experimental: as §5, §6, §3

[8] = test system: SVOG-3e immortalized human granulosa cell line; experiment: Cell viability drug screen (72 h), SVOG-3e control; assay type: cell-based; conditions: monotherapy
Experimental: (§7) KGN was cultured in conditions identical to AGCT-patient-derived cell lines.
(§8) Cell lines were seeded at a density of 500 cells/well in 40 uL in 384-well plates (Corning, NY, USA) with the Multidrop™ cell dispenser (Thermo Fischer Scientific, Waltham, MA, USA) and sealed with Breathe-Easy® membrane (Sigma-Aldrich, St. Louis, MO, USA) to prevent evaporation. The SVOG-3e line was seeded at 1000 cells/well due to contact-dependent growth requirements. For each cell line, three biological repeats and two technical repeats each were performed in order to ensure the validity of the drug screens. […] Subsequently, 11 drugs and 12 drug combinations were dispensed and all wells (excluding blanks and non-DMSO control wells) were normalized to 1% DMSO using the HP Tecan D300e Digital Dispenser (Hewlett-Packard, Palo Alto, CA, USA). […] After incubation, luminescence excitation was assessed in the Spectramax reader (Molecular Devices, San Jose, CA, USA) (top read, luminescence excitation at 500 nm) and raw data were processed in Microsoft Excel to subtract background luminescence. […]
(§9) Overall cell survival (in %) was plotted against the drug concentration range of each drug (in log10[μM]) using GraphPad Prism 8.3.1. […] The IC50 values were calculated based on the Chou–Talalay method using Compusyn software [55]. […]

[9] = cited from earlier work
[10] = test system: GCPA113 T1.III patient-derived AGCT cell line; experiment: Cell viability drug screen (Cell Titer Glo 2.0, 72 h), mono- and combination therapy, GCPA113T1.III; conditions: for DRI (Fa=0,5): GCPA113T1III; for IC50: Homo sapiens
Experimental: as §5, §6, §3

[11] = test system: KGN cells (AGCT cell line); experiment: Cell viability drug screen (Cell Titer Glo 2.0, 72 h), mono- and combination therapy, KGN; conditions: for IC50: Homo sapiens, read-out: IC50 in monotherapy
Experimental: as §7, §1, §6

[12] = test system: GCPA113 T1.II patient-derived AGCT cell line; experiment: Cell viability drug screen (Cell Titer Glo 2.0, 72 h), mono- and combination therapy, GCPA113T1.II; conditions: for DRI (Fa=0,5): GCPA113T1II; for IC50: Homo sapiens
Experimental: as §5, §6, §3

[13] = test system: GCPA096 T1.II patient-derived AGCT cell line; experiment: Cell viability drug screen (Cell Titer Glo 2.0, 72 h), mono- and combination therapy, GCPA096T1.II; conditions: for DRI (Fa=0,5): GCPA096T1II; for IC50: Homo sapiens, 72 h, read-out: IC50 in monotherapy
Experimental: as §1, §2, §3

[14] = test system: GCPA007 T2.IV patient-derived AGCT cell line; experiment: Cell viability drug screen (Cell Titer Glo 2.0, 72 h), mono- and combination therapy, GCPA007T2.IV; conditions: for DRI (Fa=0,5): GCPA007T2IV; for IC50: Homo sapiens, read-out: IC50 in monotherapy
Experimental: as §5, §6, §3

[15] = test system: GCPA096 T1.XV patient-derived AGCT cell line; experiment: Cell viability drug screen (Cell Titer Glo 2.0, 72 h), mono- and combination therapy, GCPA096T1.XV; conditions: for DRI (Fa=0,5): GCPA096T1XV; for IC50: Homo sapiens, 72 h, read-out: IC50 in monotherapy
Experimental: as §4, §2, §3

[16] = test system: GCPA007 T2.I patient-derived AGCT cell line; experiment: Cell viability drug screen (Cell Titer Glo 2.0, 72 h), mono- and combination therapy, GCPA007T2.I; conditions: for IC50: Homo sapiens, 72 h, read-out: IC50 in monotherapy; for DRI (Fa=0,5): GCPA007T2I
Experimental: as §1, §2, §3

[17] = test system: aromatase inhibitor resistant metastatic breast cancer; conditions: everolimus added to tamoxifen; postmenopausal women; cited from earlier work
[18] = test system: MCF-7 human breast cancer cell line; experiment: Cell viability drug screen (72 h), MCF-7 positive control for anti-hormonal therapies; assay type: cell-based; conditions: monotherapy
Experimental: as §7, §8, §9

[19] = GCPA028, in combination Everolimus+Alpelisib
[20] = drug within Carbo+Pacli+Alpelisib
[21] = drug within Everolimus+Alpelisib
[22] = 72 h, read-out: IC50 in monotherapy
[23] = in combination Carbo+Pacli+Alpelisib
[24] = in combination Everolimus+Alpelisib
[25] = human maximum or steady state plasma concentration, log10 of the uM value
[26] = human plasma Cmax/Css, log10 of uM value, from phase I/II clinical trials
[27] = human plasma maximum/steady state concentration, ref phase I/II clinical trials
[28] = human plasma, maximum or steady state concentration, log10 of uM value
[29] = human plasma, log10 of uM, phase I/II trials
[30] = read-out: Cmax/Css plasma, human maximum or steady state plasma concentration
[31] = read-out: Cmax/Css plasma, human plasma Cmax/Css, from phase I/II clinical trials
[32] = read-out: Cmax/Css plasma, human plasma maximum/steady state concentration, ref phase I/II clinical trials
[33] = read-out: Cmax/Css plasma, human plasma, maximum or steady state concentration
[34] = read-out: Cmax/Css plasma, human plasma, phase I/II trials

## Cc1nc(NC(=O)N2CCC[C@H]2C(N)=O)sc1-c1ccnc(C(C)(C)C(F)(F)F)c1 [Alpelisib]
[1]; GCPA028, in combination Carbo+Pacli+Alpelisib
  DRI (Fa=0,5): 4.95
[1]; [19]
  DRI (Fa=0,5): 0.99
[1]; 72 h
  IC50: 22.8 µM
[1]
  IC50: 22.8 µM
[2]; [20]
  DRI (Fa=0,5): 2.2
[2]; [21]
  DRI (Fa=0,5): 1.57
[2]
  IC50: 15 µM
[3]; in Carbo+Pacli+Alpelisib
  DRI (Fa=0,5): 13.6802
[3]; in Everolimus+Alpelisib
  DRI (Fa=0,5): 5.603
[3]; 72 h
  IC50: 53.9 µM
[3]
  IC50: 53.9 µM
[4]; in Carbo+Pacli+Alpelisib
  DRI (Fa=0,5): 1.95
[4]; in Everolimus+Alpelisib
  DRI (Fa=0,5): 1.7
[4]; 72 h
  IC50: 23.5 µM
[4]
  IC50: 23.5 µM
[5]; in Carbo+Pacli+Alpelisib
  DRI (Fa=0,5): 3.06
[5]; in Everolimus+Alpelisib
  DRI (Fa=0,5): 0.95
[5]
  IC50: 9.59 µM
[5]; [22]
  IC50: 9.59 µM
[5]; read-out: IC50 in monotherapy
  IC50: 9.59 µM
[6]; Homo sapiens, median over AGCT cell lines, read-out: median IC50 in monotherapy
  IC50: 15 µM
[7]; [23]
  DRI (Fa=0,5): 1.7
[7]; [24]
  DRI (Fa=0,5): 1.24
[7]; 72 h
  IC50: 11.7 µM
[7]
  IC50: 11.7 µM
[8]
  IC50: 7.55 µM
[9]; [25]
  Cmax/Css plasma (Log 10): 0.84 Log 10
[9]; [26]
  Cmax/Css plasma (Log 10): 0.84 Log 10
[9]; [27]
  Cmax/Css plasma (Log 10): 0.84 Log 10
[9]; [28]
  Cmax/Css plasma (Log 10): 0.84
[9]; [29]
  Cmax/Css plasma (Log 10): 0.84
[9]; read-out: Cmax (maximum drug concentration achieved in plasma), human plasma, phase I/II studies
  Cmax: 6.9 µM and 6.92 µM
[9]; [30]
  Cmax: 6.92 µM
[9]; [31]
  Cmax: 6.92 µM
[9]; [32]
  Cmax: 6.92 µM
[9]; [33]
  Cmax: 6.92 µM
[9]; [34]
  Cmax: 6.92 µM
[10]; [20]
  DRI (Fa=0,5): 5.76
[10]; [21]
  DRI (Fa=0,5): 1.89
[10]
  IC50: 11.5 µM
[10]; [22]
  IC50: 11.5 µM
[10]; read-out: IC50 in monotherapy
  IC50: 11.5 µM
[11]; 72 h
  IC50: 24.4 µM
[11]
  IC50: 24.4 µM
[11]; [20]
  DRI (Fa=0,5): 10.9278
[11]; [21]
  DRI (Fa=0,5): 1.384
[12]; [20]
  DRI (Fa=0,5): 1.81
[12]; [21]
  DRI (Fa=0,5): 1.09
[12]
  IC50: 21.4 µM
[12]; [22]
  IC50: 21.4 µM
[12]; read-out: IC50 in monotherapy
  IC50: 21.4 µM
[13]; [20]
  DRI (Fa=0,5): 2.15
[13]; [21]
  DRI (Fa=0,5): 1.5
[13]
  IC50: 12.6 µM
[14]; [23]
  DRI (Fa=0,5): 4.44
[14]; [24]
  DRI (Fa=0,5): 10.73
[14]; 72 h
  IC50: 26.7 µM
[14]
  IC50: 26.7 µM
[15]; [20]
  DRI (Fa=0,5): 2.12
[15]; [21]
  DRI (Fa=0,5): 1.36
[15]
  IC50: 14.6 µM
[16]
  IC50: 22 µM
[16]; in Carbo+Pacli+Alpelisib (10:1:2)
  DRI (Fa=0,5): 10.78
[16]; in Everolimus+Alpelisib (1:2)
  DRI (Fa=0,5): 1.24

## CO[C@H]1C[C@@H]2CC[C@@H](C)[C@@](O)(O2)C(=O)C(=O)N2CCCC[C@H]2C(=O)O[C@H]([C@H](C)C[C@@H]2CC[C@@H](OCCO)[C@H](OC)C2)CC(=O)[C@H](C)/C=C(\C)[C@@H](O)[C@@H](OC)C(=O)[C@H](C)C[C@H](C)/C=C/C=C/C=C/1C [Everolimus]
[1]; [19]
  DRI (Fa=0,5): 2.64
[1]; 72 h
  IC50: 30.3 µM
[1]
  IC50: 30.3 µM
[2]; [21]
  DRI (Fa=0,5): 12.7
[2]
  IC50: > 50 µM
[3]; in Everolimus+Alpelisib
  DRI (Fa=0,5): 76.7983
[3]; 72 h
  IC50: > 50 µM
[3]
  IC50: > 50 µM
[4]; in Everolimus+Alpelisib
  DRI (Fa=0,5): 4.73
[4]; 72 h
  IC50: 32.8 µM
[4]
  IC50: 32.8 µM
[5]; in Everolimus+Alpelisib
  DRI (Fa=0,5): 20.32
[5]; [22]
  IC50: > 50 µM
[5]; read-out: IC50 in monotherapy
  IC50: > 50 µM
[17]
  increase of time to progression: 4.1 months
  reduction of death risk: 55%
[6]; everolimus with chemotherapy, 13 cell lines
  cell lines with some degree of synergy: 9 of the 13
[7]; [24]
  DRI (Fa=0,5): 6.9
[7]; 72 h
  IC50: 32.7 µM
[7]
  IC50: 32.7 µM
[9]; [25]
  Cmax/Css plasma (Log 10): -1.19 Log 10
[9]; [26]
  Cmax/Css plasma (Log 10): -1.19 Log 10
[9]; [27]
  Cmax/Css plasma (Log 10): -1.19 Log 10
[9]; [28]
  Cmax/Css plasma (Log 10): -1.19
[9]; [29]
  Cmax/Css plasma (Log 10): -1.19
[9]; [30]
  Cmax: 0.0646 µM
[9]; [31]
  Cmax: 0.0646 µM
[9]; [32]
  Cmax: 0.0646 µM
[9]; [33]
  Cmax: 0.0646 µM
[9]; [34]
  Cmax: 0.0646 µM
[10]; [21]
  DRI (Fa=0,5): 23.74
[10]; [22]
  IC50: > 50 µM
[10]; read-out: IC50 in monotherapy
  IC50: > 50 µM
[11]; 72 h
  IC50: 45.2 µM
[11]
  IC50: 45.2 µM
[11]; [21]
  DRI (Fa=0,5): 5.131
[12]; [21]
  DRI (Fa=0,5): 11.87
[12]; [22]
  IC50: > 50 µM
[12]; read-out: IC50 in monotherapy
  IC50: > 50 µM
[13]; [21]
  DRI (Fa=0,5): 13.23
[13]
  IC50: > 50 µM
[14]; [24]
  DRI (Fa=0,5): 1.9
[14]; 72 h
  IC50: > 50 µM
[14]
  IC50: > 50 µM
[15]; [21]
  DRI (Fa=0,5): 16.55
[15]
  IC50: > 50 µM
[16]
  IC50: 27.8 µM
[16]; in Everolimus+Alpelisib (1:2)
  DRI (Fa=0,5): 3.15

## CC(C)(C#N)c1cc(Cn2cncn2)cc(C(C)(C)C#N)c1 [Anastrozole]
[1]; 72 h
  IC50: > 200 µM
[2]
  IC50: > 200 µM
[3]; 72 h
  IC50: > 200 µM
[4]; 72 h
  IC50: > 200 µM
[5]; [22]
  IC50: > 200 µM
[18]
  effect on cell viability at tolerable concentrations: did not decrease cell viability at tolerable concentrations
[7]; 72 h
  IC50: > 200 µM
[10]; [22]
  IC50: > 200 µM
[11]; 72 h
  IC50: > 200 µM
[12]; [22]
  IC50: > 200 µM
[13]
  IC50: > 200 µM
[14]; 72 h
  IC50: > 200 µM
[15]
  IC50: > 200 µM
[16]
  IC50: > 200 µM
